Measured values: patent publication US20250120941A1, “Composition for Promoting the Assimilation of an Oligosaccharide” (MORINAGA MILK INDUSTRY CO., LTD., priority 2021, published 2025)

Tests used:
[1] = test system: bifidobacterial strains in infant fecal samples (feces A, feces B); assay: Fecal culture: bifidobacterial count by quantitative PCR (Test Example 3); type: cell-based, human infant; details: after seven hours of culture, group without tocopherols = 1
Method: The feces A and the feces B prepared in Test Example 1 described above were used as fecal samples.
To imitate the environment of the large intestine, a culture experiment was conducted by the following procedures. Bio Jr. 8 100 mLx8 culture apparatus (BJR-25NA1S-8M manufactured by Biott Corporation) was used, and the operations were according to the instructions of the device. The medium components except for the tocopherols and the oligosaccharides were dissolved in purified water and sterilized in an autoclave, and the tocopherols and the oligosaccharides which were dissolved in dimethyl sulfoxide (DMSO, FUJIFILM Wako Pure Chemical Corporation) and in purified water, respectively, and which were then sterilized with a filter were added to the mixture after the autoclave treatment. The culture temperature was 37° C., and the anaerobic condition was maintained during the culture period by blowing filter-sterilized CO2 into the culture vessels. After adjusting the pH to 7.0, 100 μL (10 mg in terms of feces) of the fecal samples, which were diluted with physiological saline, were added, and anaerobic culture was started. To imitate the pH in the large intestine of an infant, the pH was controlled by neutralizing with 1M Na2CO3 when the pH became lower than 5.5 during the culture period. The media were collected 7 hours after starting the culture and centrifuged at 8000 rpm for 3 min at 4° C., and the supernatants and the precipitates were collected.
Using GENE PREP STAR PI-480 automated isolation system (Kurabo Industries Ltd. Japan), DNA was extracted from the precipitates collected in (2). Using the extracted DNA as templates and using the primers of SEQ ID NO: 1 (ctcctggaaacgggtgg) and SEQ ID NO: 2 ([…]), quantitative PCR was conducted with Applied Bio systems 7500 Fast & 7500 Real-Time PCR System (manufactured by Thermo Fisher), and the bacterial counts of bifidobacterial strains were measured. The PCR conditions were 40 cycles of denaturation at 95° C. for 5 seconds, subsequent annealing at 55° C. for 20 seconds and elongation at 72° C. for 30 seconds.
The bacterial counts of bifidobacterial strains after seven hours of culture, which were measured by the quantitative PCR, are shown in Table 5. The bacterial counts are the relative values where the bacterial counts of the groups without the addition of the tocopherols are regarded as 1.

[2] = test system: intestinal bacteria of infant fecal sample (feces B); assay: Fecal culture: oligosaccharide residual rate in culture supernatant (Test Example 1); type: cell-based, human infant
Method: Fecal samples were obtained from two healthy infants (feces A from an infant and feces B from an infant). The samples were collected immediately after the defecation and immediately moved to 10° C. or lower under an anaerobic condition. The collected feces were diluted with 10 times the amount of physiological saline within eight hours of the defecation and stored at −80° C. until use.
To imitate the environment of the large intestine, a culture experiment was conducted by the following procedures. Bio Jr. 8 100 mLx8 culture apparatus (BJR-25NA1S-8M manufactured by Biott Corporation) was used, and the operations were according to the instructions of the device. The medium components except for the tocopherols and the oligosaccharides were dissolved in purified water and sterilized in an autoclave. The tocopherols and the oligosaccharides which were dissolved in dimethyl sulfoxide (DMSO, FUJIFILM Wako Pure Chemical Corporation) and in purified water, respectively, and which were then sterilized with a filter were added to the medium after the autoclave treatment. The culture temperature was 37° C., and the anaerobic condition was maintained during the culture period by blowing filter-sterilized CO2 into the culture vessels. […]

SMILES | bifidobacterial Count (Relative Value) ([1]; Feces A) | bifidobacterial Count (Relative Value) ([1]; Feces B) | 2′-FL Residual Rate ([2]; after 7-hr culture, YCFA medium, before culture = 100) [mass %] | assimilation of 2′-fucosyllactose (in words) ([2]; after seven hours of culture)
CC(=O)N[C@H]1[C@H]([C@H](O)[C@H](O)CO)O[C@@](OC[C@H]2O[C@@H](O[C@H]3[C@H](O)[C@@H](O)[C@H](O)O[C@@H]3CO)[C@H](O)[C@@H](O)[C@H]2O)(C(=O)O)C[C@@H]1O [Comparative Example 9, 6′-Sialyllactose] | 1 | 1 |  | 
C[C@@H]1O[C@@H](O[C@H]2[C@H](O[C@H]3[C@H](O)[C@@H](O)C(O)O[C@@H]3CO)O[C@H](CO)[C@H](O)[C@@H]2O)[C@@H](O)[C@H](O)[C@@H]1O (stereo partly drawn) [Comparative Example 1, 2′-Fucosyllactose] | 1 | 1 | 114 | remained in the supernatant without being assimilated
